Laboratory results taken from patent US10533018B2, “Antimicrobial prochelators to target drug-resistant bacteria and methods of making and using the same” (Duke University, priority 2015, dated 2020).
Where two headings read alike, the source gives them in different places.

Legend:
[1] = tested on: resistant E. coli HB101 K-12 transformed to express β-lactamase; experiment: microbe, parasite or virus in culture; assay type: cell-based, Escherichia coli; conditions: for IC50: Escherichia coli
Experimental: In order to determine the antibiotic activity of DB4-51, a debilitated strain of Escherichia coli (HB101 K-12) was transformed with the pGLO plasmid from Bio-Rad in order to express β-lactamase. This transformation was confirmed by growing on a selective medium containing 100 μg/ml ampicillin in Lennox LB with 1.5% agar. A broth microdilution assay was employed to determine the relative activity of DB4-51 against susceptible (HB 101 K-12, no β-lactamase) and resistant (HB 101 K-12 transformed to express β-lactamase) E. coli. […] The bacterial growth was monitored by recording each well's absorbance at 600 nm (OD600.) The OD600 values of E. coli suspensions incubated with various compounds were compared in order to assess their activities.
FIG. 7: OD600 of susceptible and resistant K-12 E. coli cultures against DB4-51 and known antibiotics as a function of concentration. Ampicillin has a penicillin core and cephalexin has a cephalosporin core. Cultures were grown in LB broth at 37° C. while shaking at 200 rpm for 18 hours and then diluted to an OD600 of 0.005 before adding the compounds. […]
Table 1: Calculated IC50 values for DB4-51, cephalexin, ampicillin, and pyrithione. These values were derived by fitting the data to a log dose-response curve and reporting the concentration corresponding to half the maximum OD600 value for each compound.

7 bacterial strains = experiment: Broth microdilution, summary across strains tested; assay type: cell-based
Experimental: Cultures were incubated on LB (Lennox, Sigma) agar at 37° C. in ambient atmospheric composition. Before beginning an experiment, a single bacterial colony grown on LB agar was resuspended in 2 mL LB broth and incubated overnight to form a turbid cell suspension. The overnight culture was diluted 1:100 in LB and used immediately as the working culture. To assess the antibacterial activity of compounds, the working bacterial culture was aliquoted in a clear, flat-bottomed, 96-well polystyrene plate (Costar) and the compound of interest was added in 2-fold serial dilution from 500 to 1 μM. Plates were covered with a breathable sealing film (Aeroseal, Genesee Scientific) and incubated at 37° C. in ambient atmospheric composition with shaking at 200 rpm. Optical density at 600 nm was recorded after 4 h and 20 h for each well using a standard OD600 protocol with LB serving as the blank. The resulting dose-response curves were fit to a nonlinear regression in GraphPad Prism Version 6 to calculate the IC50 of DB4-51 in each strain.

[2] = Stability in aqueous media / PBS (UV-Vis, LC-MS); assay type: physicochemical
Experimental: A commercially available β-lactamase (type III from Enterobacter cloacae, Sigma Aldrich) was used to verify the specificity of compound DB4-51 activation. Aqueous samples of the prochelator with and without β-lactamase were incubated at 25° C. and LC-MS was performed periodically to monitor the conversion. Percent conversion was calculated based upon the area under the LC-MS peak that corresponds to the mass of DB4-51.
The results from the growth inhibition assays support our hypothesis that β-lactamase-producing bacteria activate DB4-51 to release PT as the active agent. […] The UV-Vis absorbance spectra of DB4-51 and PT in PBS buffer are clearly distinct, with DB4-51 showing a shoulder at 264 nm and a broad absorption peak centered at 315 nm.
In order to monitor the stability of DB4-162, the absorbance spectrum was recorded in PBS. The sample was incubated at 37° C. and the absorbance spectrum was recorded periodically. […] Additionally, the concentration of the prochelator in solution was monitored by LC-MS. A calibration curve was prepared after a serial dilution of DB4-162 was analyzed on the instrument and the area under the broad absorbance band at 260-300 nm that correlates with the prochelator was integrated. This curve was then used to calculate the concentration of DB4-162 present in solution after incubating in PBS at 37° C. The sample was analyzed by LC-MS after 0, 24, and 72 hours. After incubating in PBS for 24 hours more than 85% of the original signal was still observed by LC-MS. However, after 72 hours, it was calculated that approximately 60% of DB4-162 was still present in solution. Given the lack of degradation products in the mass spectrum and the absence of any new absorbance peaks it is possible that aggregation of the prochelator over time is the cause of the observed loss of signal. Together, the UV-Vis and LC-MS data support the overall stability of DB4-162 in aqueous conditions. By comparison, the half-life of most β-lactam antibiotics in vivo is a few hours.[44, 45]
The reaction products of the prochelator DB4-162 were analyzed by LC-MS. A sample of 100 μM DB4-162 and 10 μM Rofecoxib (internal standard) in PBS was divided into two LC-MS vials and to one was added 0.5 units/mL β-lactamase. After incubating at room temperature, the samples were run on the LC-MS. Integrating the area under the peak of the UV-trace gives a measure of the concentration of that species. By serial dilution, a calibration curve was constructed in order to quantify the concentration of DB4-162 present in solution. The mass spectrum confirms that the prochelator, with a molecular weight of 477.1 g/mol, elutes at 14.5 minutes (FIG. 10).

+Bla K-12 E. coli = assay type: cell-based, Escherichia coli; conditions: 1 h, ICP-MS; for increase in cell-associated copper over the CuCl2 control: 10 μM compound + 10 μM supplemental CuCl2; for changes in cell-associated copper, iron, or zinc vs untreated control: 2.5-10 μM compound alone
Experimental: PT is recognized as an ionophore that shuttles metals across cell membranes and thereby disrupts cellular metal homeostasis. […] To test this hypothesis, inductively-coupled plasma mass spectrometry (ICP-MS) was used to measure the concentration of cell-associated copper, iron, and zinc for +Bla K-12 E. coli grown under a variety of conditions. Untreated E. coli grown in LB media were compared to those incubated for one hour in LB containing 0, 2.5, 5, or 10 μM DB4-51 or PT with and without 10 μM supplemental CuCl2. The concentrations of cell-associated metals in +Bla E. coli grown in these conditions are reported as a ratio against bacterial growth as measured by the OD600 reading at the time of sampling.
FIG. 6: Cellular metal concentrations of +Bla K-12 E. coli. Cultures of +Bla K-12 E. coli were incubated for 1 h in LB media, LB containing no treatment, 10 μM added CuCl2, and DB4-51 (top) or PT (bottom) at indicated concentrations in the absence or presence of 10 μM CuCl2. Metal contents of cell pellets were analysed via ICP-MS and reported as a function of OD600.

Structure (SMILES): CC1(C)S[C@@H]2[C@H](NC(=O)[C@H](N)c3ccccc3)C(=O)N2[C@H]1C(=O)O [Ampicillin]
- IC50 [1]: > 560 µM

Structure (SMILES): O=C(Cc1ccccc1)N[C@@H]1C(=O)N2C(C(=O)O)=C(CSc3cccc[n+]3[O-])CS[C@H]12 [DB4-51, 2-((((6R,7R)-2-carboxy-8-oxo-7-(2-phenylacetamido)-5-thia-1-azabicyclo[4.2.0]oct-2-en-3-yl)methyl)thio)pyridine 1-oxide]
- IC50 [1]: 39 µM
- decrease of IC50 over time ([1]; resistant K-12, over 22 hours): 50%
- IC50 of DB4-51 relative to that of PT (7 bacterial strains; most ampicillin-resistant strains tested): 2-5 fold
- stability by LC-MS ([2]; PBS, 72 hours at 37° C.): no signs of degradation
- absorbance spectrum in PBS ([2]; PBS, after 19 hours): remains unchanged
- Percent conversion in the absence of the enzyme ([2]; aqueous, 25° C., after 48 hours): ≤ 5%
- increase in cell-associated copper over the CuCl2 control (+Bla K-12 E. coli): slight but statistically insignificant increase
- changes in cell-associated copper, iron, or zinc vs untreated control (+Bla K-12 E. coli): no significant changes

Structure (SMILES): Cc1csc(=S)n1OCC1=C(C(=O)O)N2C(=O)[C@@H](NC(=O)Cc3ccccc3)[C@H]2SC1 [DB4-162, (6R,7R)-3-(((4-methyl-2-thioxothiazol-3(2H)-yl)oxy)methyl)-8-oxo-7-(2-phenylacetamido)-5-thia-1-azabicyclo[4.2.0]oct-2-ene-2-carboxylic acid]
- stability without the enzyme (LC-MS) [2]: appears stable
- original signal still observed by LC-MS ([2]; PBS, 37° C., 24 hours): more than 85%
- prochelator still present in solution (LC-MS) ([2]; PBS, 37° C., 72 hours): approximately 60%
- absorbance spectrum change ([2]; PBS, 37° C., after 72 hours): only very small spectral changes

Structure (SMILES): [O-][n+]1ccccc1S [PT, 2-mercaptopyridine N-oxide]
- IC50 [1]: < 18 µM
- IC50 (7 bacterial strains; 500 μM BCS, depending on strain, read-out: IC50 across strains under Cu limiting conditions): 6 to 20 µM
- IC50 (7 bacterial strains; LB broth, span over 7 strains, read-out: IC50 across all strains tested): 2 to 11 µM
- increase in cell-associated copper over the CuCl2 control (+Bla K-12 E. coli): 30 fold
- changes in cell-associated copper, iron, or zinc vs untreated control (+Bla K-12 E. coli): no significant changes
